Measurements reported in the supplement of paper PMC10307832.

Columns and labels:
Assay in all cases: relative viability (nuclei count vs DMSO), 5 days (fraction); higher = more cells survive
A-427 = test system: A-427
Outline: (§1)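 Lung cancer cell lines, seeded in 1536-well plates, were treated the following day by pin tool with a single drug or with five library-drug doses (not always all listed) in √10 steps on top of a fixed anchor-drug dose. Cells were fixed and nuclei stained in one step after 5 days, and nuclei were counted. Relative viability is the nuclei count for treated wells divided by that for vehicle wells, reported as medians of duplicate plates.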

ABC-1 = test system: ABC-1
Outline: as §1

COR-L23 = test system: COR-L23
Outline: as §1

EMC-BAC-2 = test system: EMC-BAC-2
Outline: as §1

HARA = test system: HARA
Outline: as §1

HOP-62 = test system: HOP-62
Outline: as §1

LK-2 = test system: LK-2
Outline: as §1

LU99A = test system: LU99A
Outline: as §1

LXF-289 = test system: LXF-289
Outline: as §1

NCI-H1792 = test system: NCI-H1792
Outline: as §1

NCI-H1793 = test system: NCI-H1793
Outline: as §1

NCI-H1944 = test system: NCI-H1944
Outline: as §1

NCI-H1993 = test system: NCI-H1993
Outline: as §1

NCI-H2009 = test system: NCI-H2009
Outline: as §1

NCI-H2170 = test system: NCI-H2170
Outline: as §1

NCI-H2228 = test system: NCI-H2228
Outline: as §1

NCI-H3122 = test system: NCI-H3122
Outline: as §1

NCI-H596 = test system: NCI-H596
Outline: as §1

NCI-H727 = test system: NCI-H727
Outline: as §1

PC-3 [JPC-3] = test system: PC-3 [JPC-3]
Outline: as §1

SK-LU-1 = test system: SK-LU-1
Outline: as §1

SK-MES-1 = test system: SK-MES-1
Outline: as §1

SW 1573 = test system: SW 1573
Outline: as §1

SW 900 = test system: SW 900
Outline: as §1

Clc1ccc(Nc2nnc(Cc3ccncc3)c3ccccc23)cc1 [Vatalanib] + N=C(N)NC(=N)NCCc1ccccc1 [Phenformin] (partner 250 µM) was tested, and the relative viability (A-427; first compound 0.04 µM) was 0.427, the relative viability (A-427; first compound 0.1265 µM) was 0.295 and the relative viability (A-427; first compound 0.4 µM) was 0.285. For the same compound, the relative viability (A-427; first compound 1.265 µM) was 0.31, the relative viability (A-427; first compound 4 µM) was 0.298 and the relative viability (ABC-1; first compound 0.04 µM) was 0.241. The relative viability (ABC-1; first compound 0.1265 µM) was 0.242, the relative viability (ABC-1; first compound 1.265 µM) was 0.262 and the relative viability (ABC-1; first compound 4 µM) was 0.222. The relative viability (COR-L23; first compound 0.04 µM) was 0.442, the relative viability (COR-L23; first compound 0.1265 µM) was 0.43 and the relative viability (COR-L23; first compound 0.4 µM) was 0.467. The relative viability (COR-L23; first compound 1.265 µM) was 0.389, the relative viability (COR-L23; first compound 4 µM) was 0.402 and the relative viability (EMC-BAC-2; first compound 0.04 µM) was 0.511. The relative viability (EMC-BAC-2; first compound 0.1265 µM) was 0.538, the relative viability (EMC-BAC-2; first compound 0.4 µM) was 0.542 and the relative viability (EMC-BAC-2; first compound 1.265 µM) was 0.497. The relative viability (EMC-BAC-2; first compound 4 µM) was 0.512, the relative viability (HARA; first compound 0.04 µM) was 0.452 and the relative viability (HARA; first compound 0.1265 µM) was 0.397. It also gave a relative viability (HARA; first compound 0.4 µM) of 0.497, a relative viability (HARA; first compound 1.265 µM) of 0.42 and a relative viability (HARA; first compound 4 µM) of 0.354. It also gave a relative viability (HOP-62; first compound 0.04 µM) of 0.668, a relative viability (HOP-62; first compound 0.1265 µM) of 0.65 and a relative viability (HOP-62; first compound 0.4 µM) of 0.649. The relative viability (HOP-62; first compound 1.265 µM) was 0.624, the relative viability (HOP-62; first compound 4 µM) was 0.633 and the relative viability (LK-2; first compound 0.04 µM) was 0.408. The relative viability (LK-2; first compound 0.1265 µM) was 0.398, the relative viability (LK-2; first compound 0.4 µM) was 0.381 and the relative viability (LK-2; first compound 1.265 µM) was 0.466. The relative viability (LK-2; first compound 4 µM) was 0.393, the relative viability (LU99A; first compound 0.04 µM) was 0.839 and the relative viability (LU99A; first compound 0.1265 µM) was 0.764. It also gave a relative viability (LU99A; first compound 0.4 µM) of 1.04, a relative viability (LU99A; first compound 1.265 µM) of 0.705 and a relative viability (LU99A; first compound 4 µM) of 0.813. The relative viability (LXF-289; first compound 0.04 µM) was 0.505, the relative viability (LXF-289; first compound 0.1265 µM) was 0.465 and the relative viability (LXF-289; first compound 0.4 µM) was 0.558. The relative viability (LXF-289; first compound 1.265 µM) was 0.53, the relative viability (LXF-289; first compound 4 µM) was 0.539 and the relative viability (NCI-H1792; first compound 0.04 µM) was 0.257. The relative viability (NCI-H1792; first compound 0.4 µM) was 0.224, the relative viability (NCI-H1792; first compound 1.265 µM) was 0.236 and the relative viability (NCI-H1792; first compound 4 µM) was 0.386. The relative viability (NCI-H1793; first compound 0.04 µM) was 0.354, the relative viability (NCI-H1793; first compound 0.1265 µM) was 0.341 and the relative viability (NCI-H1793; first compound 0.4 µM) was 0.435. It also gave a relative viability (NCI-H1793; first compound 1.265 µM) of 0.295, a relative viability (NCI-H1793; first compound 4 µM) of 0.296 and a relative viability (NCI-H1944; first compound 0.04 µM) of 0.221. The relative viability (NCI-H1944; first compound 0.1265 µM) was 0.198, the relative viability (NCI-H1944; first compound 0.4 µM) was 0.212 and the relative viability (NCI-H1944; first compound 1.265 µM) was 0.188. It also gave a relative viability (NCI-H1944; first compound 4 µM) of 0.19, a relative viability (NCI-H1993; first compound 0.04 µM) of 0.492 and a relative viability (NCI-H1993; first compound 0.1265 µM) of 0.533. It also gave a relative viability (NCI-H1993; first compound 0.4 µM) of 0.601, a relative viability (NCI-H1993; first compound 1.265 µM) of 0.482 and a relative viability (NCI-H1993; first compound 4 µM) of 0.534. It also gave a relative viability (NCI-H2009; first compound 0.04 µM) of 0.578, a relative viability (NCI-H2009; first compound 0.1265 µM) of 0.439 and a relative viability (NCI-H2009; first compound 0.4 µM) of 0.464. It also gave a relative viability (NCI-H2009; first compound 1.265 µM) of 0.406, a relative viability (NCI-H2009; first compound 4 µM) of 0.391 and a relative viability (NCI-H2170; first compound 0.04 µM) of 0.437. For the same compound, the relative viability (NCI-H2170; first compound 0.1265 µM) was 0.476, the relative viability (NCI-H2170; first compound 0.4 µM) was 0.469 and the relative viability (NCI-H2170; first compound 1.265 µM) was 0.405. The relative viability (NCI-H2170; first compound 4 µM) was 0.353, the relative viability (NCI-H2228; first compound 0.04 µM) was 0.364 and the relative viability (NCI-H2228; first compound 0.1265 µM) was 0.317. It also gave a relative viability (NCI-H2228; first compound 0.4 µM) of 0.335, a relative viability (NCI-H2228; first compound 1.265 µM) of 0.366 and a relative viability (NCI-H2228; first compound 4 µM) of 0.322. It also gave a relative viability (NCI-H3122; first compound 0.04 µM) of 0.401, a relative viability (NCI-H3122; first compound 0.1265 µM) of 0.365 and a relative viability (NCI-H3122; first compound 1.265 µM) of 0.316. The relative viability (NCI-H3122; first compound 4 µM) was 0.323, the relative viability (NCI-H596; first compound 0.04 µM) was 0.715 and the relative viability (NCI-H596; first compound 0.1265 µM) was 0.874. It also gave a relative viability (NCI-H596; first compound 0.4 µM) of 0.769, a relative viability (NCI-H596; first compound 1.265 µM) of 0.767 and a relative viability (NCI-H596; first compound 4 µM) of 0.662. It also gave a relative viability (NCI-H727; first compound 0.04 µM) of 0.531, a relative viability (NCI-H727; first compound 0.1265 µM) of 0.572 and a relative viability (NCI-H727; first compound 0.4 µM) of 0.519. For the same compound, the relative viability (NCI-H727; first compound 1.265 µM) was 0.558, the relative viability (NCI-H727; first compound 4 µM) was 0.466 and the relative viability (PC-3 [JPC-3]; first compound 0.04 µM) was 0.456. For the same compound, the relative viability (PC-3 [JPC-3]; first compound 0.1265 µM) was 0.465, the relative viability (PC-3 [JPC-3]; first compound 0.4 µM) was 0.456 and the relative viability (PC-3 [JPC-3]; first compound 1.265 µM) was 0.493. For the same compound, the relative viability (PC-3 [JPC-3]; first compound 4 µM) was 0.508, the relative viability (SK-LU-1; first compound 0.04 µM) was 0.631 and the relative viability (SK-LU-1; first compound 0.1265 µM) was 0.462. It also gave a relative viability (SK-LU-1; first compound 0.4 µM) of 0.663, a relative viability (SK-LU-1; first compound 1.265 µM) of 0.494 and a relative viability (SK-LU-1; first compound 4 µM) of 0.52. The relative viability (SK-MES-1; first compound 0.04 µM) was 0.659, the relative viability (SK-MES-1; first compound 0.1265 µM) was 0.638 and the relative viability (SK-MES-1; first compound 0.4 µM) was 0.753. It also gave a relative viability (SK-MES-1; first compound 1.265 µM) of 0.572, a relative viability (SK-MES-1; first compound 4 µM) of 0.537 and a relative viability (SW 1573; first compound 0.04 µM) of 0.402. For the same compound, the relative viability (SW 1573; first compound 0.1265 µM) was 0.374, the relative viability (SW 1573; first compound 0.4 µM) was 0.368 and the relative viability (SW 1573; first compound 1.265 µM) was 0.324. It also gave a relative viability (SW 1573; first compound 4 µM) of 0.347, a relative viability (SW 900; first compound 0.1265 µM) of 0.689 and a relative viability (SW 900; first compound 0.4 µM) of 0.539. For the same compound, the relative viability (SW 900; first compound 1.265 µM) was 0.458 and the relative viability (SW 900; first compound 4 µM) was 0.544.
